{"source": "paper PMC9006931", "about": "“Altered Response Pattern following AZD5582 Treatment of SIV-Infected, ART-Suppressed Rhesus Macaque Infants” (Journal of Virology, 2022)", "key": {"[1]": {"test_system": "CD4+ T cells from SIV-infected, ART-suppressed adult RMs", "assay": "Ex vivo viral RNA induction assay, adult CD4+ T cells", "assay_type": "cell-based, rhesus macaque", "conditions": "100 nM, 9 days, in presence of DTG+FTC", "source_text": "(§1) Following confirmation of ncNF-κB pathway activation in infant naive and memory CD4^+ T cells ex vivo, we next sought to evaluate SIV reactivation following ex vivo AZD5582 stimulation in CD4^+ T cells isolated from SIV-infected, ART-suppressed infant RMs compared to CD4^+ T cells from SIV-infected, ART-suppressed adult RMs. To do so, we isolated CD4^+ T cells through negative selection from the peripheral blood of five SIV-infected, ART-suppressed adult RMs and five SIV-infected, ART-suppressed infant RMs. Cells were stimulated with either 100 nM AZD5582 or rhesus specific anti-CD2/CD3/CD28 beads (as a positive control) in the presence of ART (DTG+FTC) for 9 days. The supernatant was collected to quantify SIVgag RNA through qPCR as a measure of viral reactivation.\n(§2) Viable cryopreserved PBMCs from SIV-infected, ART-suppressed infant and adult RMs collected 34 to 97 weeks post ART initiation were thawed, and CD4^+ T cells were enriched by negative selection using the NHP CD4^+ T cell isolation kit (Miltenyi Biotec). […] The viral RNA content of frozen cell-free culture supernatants collected on day 9 was determined using the SIVgag qPCR described above."}, "[2]": {"test_system": "CD4+ T cells from SIV-infected, ART-suppressed infant RMs", "assay": "Ex vivo viral RNA induction assay, infant CD4+ T cells", "assay_type": "cell-based, rhesus macaque", "conditions": "100 nM, 9 days, in presence of DTG+FTC", "source_text": "as §1, §2"}, "[3]": {"assay": "Plasma pharmacokinetics of AZD5582 in infant RMs (HPLC-MS/MS, NCA)", "assay_type": "in vivo, rhesus macaque", "procedure": "As a potential explanation for the dampened virologic response to AZD5582 observed in infant RMs, we investigated AZD5582 pharmacokinetics (PK) following the third dose using a sparse sampling design. Blood samples were collected immediately following infusion in 4 RMs and from 2 RMs per time point at 1 h, 2 h, 4 h, 8 h, and 24 h postinfusion. […] Noncompartmental analysis (NCA) was conducted to determine pharmacokinetic parameters in infants and compared with available PK data from adult historical controls of SIV-infected, ART-suppressed rhesus macaques (n = 7) given matched doses of AZD5582 (Fig. 4B) ([17]). […] Although corresponding data were not collected from adult macaques, we note that in infants the AUC0-24h was calculated as 239 ng × hr/mL.\nPlasma samples were collected from RMs over 24 h following the start of a single 30 min intravenous infusion of AZD5582 using a previously published ([17]). A high-performance liquid chromatography-mass spectrometry (HPLC-MS/MS) method with a dynamic range of 0.2 to 1000 ng/mL. Noncompartmental analysis (NCA) was performed using Phoenix64 WinNonlin v8.1 software using the sparse sampling function to derive mean PK parameters. The linear up-log down trapezoidal rule was used to calculate AUC. The terminal elimination rate constant (kel) was estimated by fitting a linear regression line on a semilog plot to the individual concentration data constrained to observations from 4 to 24 h post start of infusion and used to calculate terminal elimination half-life. One observation below the assay’s limit of quantification was imputed at ½ the lower limit of quantification ([35])."}, "[4]": {"conditions": "rhesus monkey, in vivo, iv, 0.1 mg/kg"}}}
{"smiles": "CN[C@@H](C)C(=O)N[C@H](C(=O)N1CCC[C@H]1C(=O)N[C@H]1c2ccccc2C[C@H]1OCC#CC#CCO[C@@H]1Cc2ccccc2[C@@H]1NC(=O)[C@@H]1CCCN1C(=O)[C@@H](NC(=O)[C@H](C)NC)C1CCCCC1)C1CCCCC1", "note": "[AZD5582]", "values": [{"measurement": "Animals whose CD4+ T cell cultures showed increased SIV RNA expression in supernatant", "setting": "[1]", "value": "3/5"}, {"measurement": "Animals whose CD4+ T cell cultures showed increased SIV RNA expression in supernatant", "setting": "[2]", "value": "1/5"}, {"measurement": "Fold lower AUC0-2h in infants compared with adults", "setting": "[3]; infant vs adult RMs", "value": 2.3, "unit": "fold"}, {"measurement": "AUC0-2h", "setting": "[3]; [4]", "value": 223, "unit": "ng·h/mL"}, {"measurement": "AUC0-24h", "setting": "[3]; [4]", "value": 239, "unit": "ng·h/mL"}, {"measurement": "Cmax", "setting": "[3]; [4]", "value": 294, "unit": "ng/mL"}, {"measurement": "t1/2 (terminal elimination halflife)", "setting": "[3]; [4]", "value": 9.9, "unit": "h"}]}
